Results as given in patent US10925856B2, “Methods and compositions involving bucindolol for the treatment of atrial fibrillation” (priority 2018, dated 2021).
Read-outs that look alike come from different tables or passages of the source.

[1] = CYP2D6 Extensive/Ultra Metabolizer
[2] = Drug Titration Period (first 42 days)
[3] = treatment-emergent AE, total follow-up

## CC(C)(Cc1c[nH]c2ccccc12)NCC(O)COc1ccccc1C#N (stereo not shown) [bucindolol, 2-(3-(1-(1H-indol-3-yl)-2-methylpropan-2-ylamino)-2-hydroxypropoxy)benzonitrile]
[1]
  HEADACHE, % of patients: (4.8%)
  HEADACHE, number of patients: 5
  HYPOTENSION, % of patients: (9.5%)
  HYPOTENSION, number of patients: 10
  IMMUNE SYSTEM DISORDERS, % of patients: (1.0%)
  IMMUNE SYSTEM DISORDERS, number of patients: 1
  INFECTIONS AND INFESTATIONS, % of patients: (28.6%)
  INFECTIONS AND INFESTATIONS, number of patients: 30
  INFLUENZA, % of patients: (2.9%)
  INFLUENZA, number of patients: 3
CYP2D6 Poor Metabolizer
  HEADACHE, % of patients: (0.0%)
  HEADACHE, number of patients: 0
  INFECTIONS AND INFESTATIONS, % of patients: (33.3%)
  INFECTIONS AND INFESTATIONS, number of patients: 4
  INFLUENZA, % of patients: (8.3%)
  INFLUENZA, number of patients: 1
  UPPER RESPIRATORY TRACT INFECTION, % of patients: (8.3%)
  UPPER RESPIRATORY TRACT INFECTION, number of patients: 1
[2]
  AC mortality or CV hosp or treatment disc. due to AE, patients N (%): 5 (4%)
  All-cause mortality, patients N (%): 0 (0%)
GENETIC-AF, all randomized patients
  AEs leading to study withdrawal (excluding death): 1.5%
Total Study On-Drug Period
  Adverse event leading to death, patients N (%): 2.3%
  Adverse events leading to study withdrawal (excluding death), patients N (%): 2 (1.5%)
Total Study On-Drug Period, listed as Bucindolol
  Adverse event leading to death, patients N (%): 3 (2.3%)
human, in vivo
  AE SOC frequency: Cardiac Disorders: 25.4%
  AE SOC frequency: Eye Disorders: 6.0%
  AE SOC frequency: Gastrointestinal Disorders: 20.9%
  AE SOC frequency: Hepatobiliary Disorders: 3.7%
  AE SOC frequency: Infections and Infestations: 28.4%
  AE SOC frequency: Investigators: 12.7%
  AE SOC frequency: Metabolism and Nutrition Disorders: 14.2%
  AE SOC frequency: Musculoskeletal and Connective Tissue Disorders: 25.4%
  AE SOC frequency: Neoplasms Benign Malignant and Unspecified: 2.2%
  AE SOC frequency: Renal and Urinary Disorders: 10.4%
  AE SOC frequency: Respiratory, Thoracic and Mediastinal Disorders: 15.7%
  AE frequency: arthralgia: 5.2%
  AE frequency: cardiac failure: 5.2%
  AE frequency: chronic kidney disease: 3.0%
  AE frequency: constipation: 6.0%
  AE frequency: epistaxis: 3.0%
  AE frequency: hematuria: 3.0%
  AE frequency: hypomagnesaemia: 3.0%
  AE frequency: hypotension: 9.7%
  AE frequency: pneumonia: 3.0%
  AE frequency: upper respiratory tract infection: 6.0%
  AE of symptomatic bradycardia or bradycardia leading to dose reduction or discontinuation of study drug, patients N (%): 4 (3.0%)
  AEs leading to permanent study drug discontinuation: 8.2%
  AEs: Bradycardia: 3.7%
  AEs: Stroke (99% on OACs): 0.0%
  Adverse event possible/probably related to study drug, patients N (%): 32 (23.9%)
  Adverse events leading to permanent study drug discontinuation, patients N (%): 11 (8.2%)
  Adverse events related to neoplasm, patients N (%): 3 (2.2%)
  Any bradycardia event, % of patients: (4%)
  Any bradycardia event, number of patients: 5
  Any bradycardia, % of patients: (4%)
  Any bradycardia, number of patients: 5
  Any serious adverse event, % of patients: (25%)
  Any serious adverse event, number of patients: 33
  Asymptomatic bradycardia event, % of patients: (0%)
  Asymptomatic bradycardia event, number of patients: 0
  Asymptomatic bradycardia, % of patients: (0%)
  Asymptomatic bradycardia, number of patients: 0
  Bradycardia event leading to study drug discontinuation, % of patients: (1%)
  Bradycardia event leading to study drug discontinuation, number of patients: 1
  Bradycardia event leading to study drug dose interruption, % of patients: (0%)
  Bradycardia event leading to study drug dose interruption, number of patients: 0
  Bradycardia event leading to study drug dose reduction, % of patients: (2%)
  Bradycardia event leading to study drug dose reduction, number of patients: 3
  CAD, % of patients: (6%)
  CAD, number of patients: 8
  Cardiac AE rate (heart failure or bradycardia events): 25%
  Cardiovascular serious adverse event, % of patients: (9%)
  Cardiovascular serious adverse event, number of patients: 12
  Catheterization, % of patients: (4%)
  Catheterization, number of patients: 5
  Heart block (Mobitz I/II, 2:1, or 3rd degree), % of patients: (0%)
  Heart block (Mobitz I/II, 2:1, or 3rd degree), number of patients: 0
  ICD Implantation, % of patients: (4%)
  ICD Implantation, number of patients: 5
  Incidence of Cr > 3.0, % of patients: (1%)
  Incidence of Cr > 3.0, number of patients: 1
  Incidence of bilirubin > 2.0, % of patients: (1%)
  Incidence of bilirubin > 2.0, number of patients: 1
  Non-CNS Embolism, % of patients: (0%)
  Non-CNS Embolism, number of patients: 0
  Pacemaker Implantation, % of patients: (1%)
  Pacemaker Implantation, number of patients: 1
  REPRODUCTIVE SYSTEM AND BREAST DISORDERS, % of patients: (0.0%)
  REPRODUCTIVE SYSTEM AND BREAST DISORDERS, number of patients: 0
  SAE SOC frequency: Infections and Infestations: 4.5%
  SAE SOC frequency: Renal and Urinary Disorders: 3.0%
  SAE SOC frequency: Respiratory, Thoracic and Mediastinal Disorders: 5.2%
  SAE frequency: Cardiac Failure: 3.0%
  SAE frequency: Cardiac Failure Congestive: 2.2%
  SAEs: Any cardiovascular event: 9.0%
  SINUS BRADYCARDIA, % of patients: (0.0%)
  SINUS BRADYCARDIA, number of patients: 0
  Stroke, % of patients: (0%)
  Stroke, number of patients: 0
  Symptomatic bradycardia event, % of patients: (4%)
  Symptomatic bradycardia event, number of patients: 5
  Symptomatic bradycardia, % of patients: (4%)
  Symptomatic bradycardia, number of patients: 5
  TIA, % of patients: (0%)
  TIA, number of patients: 0
  UPPER RESPIRATORY TRACT INFECTION, % of patients: (5.7%)
  UPPER RESPIRATORY TRACT INFECTION, number of patients: 6
human, in vivo, 42 days
  All-cause hospitalization, patients N (%): 7 (5%)
  Any serious adverse event, patients N (%): 8 (6%)
  Asymptomatic bradycardia, patients N (%): 0 (0%)
  Cardiovascular hospitalization, patients N (%): 5 (4%)
  Heart failure hospitalization, patients N (%): 1 (1%)
  Symptomatic bradycardia, patients N (%): 2 (1%)
  Treatment-related cardiovascular serious adverse event, patients N (%): 0 (0%)
  Treatment-related serious adverse event, patients N (%): 1 (1%)
In vivo
  Ablation, % of patients: (16%)
  Ablation, number of patients: 21
  Additional ECV After Successful SR, % of patients: (28%)
  Additional ECV After Successful SR, number of patients: 37
  Anti-Arrhythmic Therapy, % of patients: (34%)
  Anti-Arrhythmic Therapy, number of patients: 46
  Appropriate Firing of on ICD, % of patients: (0%)
  Appropriate Firing of on ICD, number of patients: 0
  Bradycardia AEs: none
  Rate Control Therapy, % of patients: (15%)
  Rate Control Therapy, number of patients: 20
[3]
  HEADACHE, % of patients: (4.5%)
  HEADACHE, number of patients: 6
  INFECTIONS AND INFESTATIONS, % of patients: (26.9%)
  INFECTIONS AND INFESTATIONS, number of patients: 36
  INFLUENZA, % of patients: (3.0%)
  INFLUENZA, number of patients: 4
  UPPER RESPIRATORY TRACT INFECTION, % of patients: (5.2%)
  UPPER RESPIRATORY TRACT INFECTION, number of patients: 7
treatment-emergent serious AE
  INFECTIONS AND INFESTATIONS, % of patients: (4.5%)
  INFECTIONS AND INFESTATIONS, number of patients: 6
